SMILES strings stand for the structures. Active and inactive are the calls of the source. The calls are words filed in the database; no cut-off is given here.

For data set [1], the target named is Vitamin D3 receptor (Mus musculus) (UniProt P48281). Nature of the data set: In vivo agonist activity at VDR in mouse B16-F10 cells implanted C57BL/6 mouse assessed as induction of Cyp24al gene in tumor at 5 mg/kg, ip administered 2 times at 24 hrs interval by RT-qPCR analysis. The following applies: time 48.0 hrs. A general note: Quantitative PCR measures a nucleic acid by following its amplification.

The target in data set [2] is T1, Vitamin D3 receptor (Mus musculus) (UniProt P48281).
T1 sequence (whole entry): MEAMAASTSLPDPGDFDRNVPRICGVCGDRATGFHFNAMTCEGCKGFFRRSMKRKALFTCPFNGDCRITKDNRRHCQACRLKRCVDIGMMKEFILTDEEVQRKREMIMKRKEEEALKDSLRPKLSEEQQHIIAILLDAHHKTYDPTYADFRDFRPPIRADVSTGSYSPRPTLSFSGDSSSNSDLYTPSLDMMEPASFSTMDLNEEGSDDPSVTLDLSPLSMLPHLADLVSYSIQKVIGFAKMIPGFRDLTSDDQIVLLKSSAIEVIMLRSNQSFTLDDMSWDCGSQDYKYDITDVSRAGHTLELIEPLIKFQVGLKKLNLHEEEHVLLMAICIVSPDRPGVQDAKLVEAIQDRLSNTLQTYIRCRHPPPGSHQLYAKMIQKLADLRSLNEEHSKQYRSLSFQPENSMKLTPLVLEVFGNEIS
Nature of the data set: Agonist activity at VDR in mouse B16-F10 cells assessed as induction of Cyp24a1 gene at 1 to 10 uM measured after 24 hrs by RT-qPCR analysis. Format: cell-based. Conditions: filed as agonist, dose 1-10 µM.

Data set [3] relates to 4T1. Nature of the data set: Inhibition of class 1 HDAC in mouse 4T1 cells assessed as induction of H3K9 acetylation at 10 uM measured after 6 hrs by Western blot analysis. Format: cell-based.
Data set [4] concerns Mus musculus. Kind of data set: Immunomodulatory activity in mouse 4T1 cells implanted BALB/c mouse assessed as induction of Il1a gene expression at 1.5 to 5 mg/kg, ip administered daily for 18 days by RT-qPCR analysis. The following applies: dose 1.5-5 mg/kg, time 18.0 day. The class given is functional, organism-based.
The target of data set [5] is T1, Vitamin D3 receptor (Mus musculus). Kind of data set: Agonist activity at VDR in mouse 4T1 cells assessed as induction of Cyp24a1 gene at 0.1 to 10 uM measured after 24 hrs by RT-qPCR analysis. The class given is cell-based. The following applies: filed as agonist, dose 0.1-10 µM.
Data set [6] concerns B16-F10. Kind of data set: Cytotoxicity against mouse B16-F10 cells assessed as reduction in cell viability at 0.01 to 100 uM measured after 24 hrs by RealTime-glo cell viability assay. Format: functional, cell-based. Conditions: dose 0.01-100 µM.
The target in data set [7] is T2, Protein deacetylase HDAC6 (Mus musculus) (UniProt Q9Z2V5).
T2 sequence (whole entry): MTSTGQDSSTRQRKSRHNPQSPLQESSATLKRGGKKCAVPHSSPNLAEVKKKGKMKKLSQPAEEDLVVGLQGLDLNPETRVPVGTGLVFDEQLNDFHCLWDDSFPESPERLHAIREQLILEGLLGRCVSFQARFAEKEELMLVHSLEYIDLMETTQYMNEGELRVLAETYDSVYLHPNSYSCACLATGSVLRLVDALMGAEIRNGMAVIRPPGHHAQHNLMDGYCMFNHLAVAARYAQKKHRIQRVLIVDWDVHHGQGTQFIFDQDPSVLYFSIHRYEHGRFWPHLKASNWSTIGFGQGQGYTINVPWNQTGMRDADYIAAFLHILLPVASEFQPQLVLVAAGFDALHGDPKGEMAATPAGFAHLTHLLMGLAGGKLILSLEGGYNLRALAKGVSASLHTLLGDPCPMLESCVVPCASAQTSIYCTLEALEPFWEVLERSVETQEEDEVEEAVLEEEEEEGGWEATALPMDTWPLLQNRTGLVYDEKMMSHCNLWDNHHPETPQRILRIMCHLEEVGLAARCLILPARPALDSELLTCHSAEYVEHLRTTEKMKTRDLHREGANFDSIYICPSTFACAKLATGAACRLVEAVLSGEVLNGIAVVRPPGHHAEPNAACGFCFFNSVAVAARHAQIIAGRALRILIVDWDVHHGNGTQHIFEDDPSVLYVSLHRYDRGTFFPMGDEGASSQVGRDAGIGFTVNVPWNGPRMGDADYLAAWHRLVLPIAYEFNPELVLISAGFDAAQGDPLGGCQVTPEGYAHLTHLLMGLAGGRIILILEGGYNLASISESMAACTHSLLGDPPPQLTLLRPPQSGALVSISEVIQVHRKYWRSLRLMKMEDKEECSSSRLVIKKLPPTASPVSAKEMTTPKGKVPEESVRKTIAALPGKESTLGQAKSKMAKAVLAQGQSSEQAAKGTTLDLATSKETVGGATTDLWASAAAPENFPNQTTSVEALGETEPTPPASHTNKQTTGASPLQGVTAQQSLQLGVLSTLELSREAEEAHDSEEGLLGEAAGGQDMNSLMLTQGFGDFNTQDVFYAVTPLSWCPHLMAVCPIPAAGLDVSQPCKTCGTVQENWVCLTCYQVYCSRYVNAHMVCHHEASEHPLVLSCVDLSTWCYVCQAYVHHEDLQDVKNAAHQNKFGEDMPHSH
Nature of the data set: Inhibition of HDAC6 in mouse 4TO7 cells assessed as induction of tubulin acetylation at 10 uM measured after 6 hrs by Western blot analysis. The class given is cell-based.

Data set [8] concerns the target Vitamin D3 receptor (Mus musculus) (UniProt P48281). Nature of the data set: In vivo agonist activity at VDR in mouse B16-F10 cells implanted C57BL/6 mouse assessed as induction of VDR gene in tumor at 5 mg/kg, ip administered 2 times at 24 hrs interval by RT-qPCR analysis. Conditions: time 48.0 hrs.
A short description of data set [9]: Toxicity in 4T1 cells implanted BALB/c mouse assessed as stress at 1.5 to 5 mg/kg, ip administered daily for 18 days. The class given is organism-based. The following applies: in vivo, 432 h, dose 1.5-5 mg/kg, time 18 day.
Data set [10] concerns 4TO7. Nature of the data set: Inhibition of class 1 HDAC in mouse 4TO7 cells assessed as induction of H3K27 acetylation at 10 uM measured after 6 hrs by Western blot analysis. The class given is cell-based. In general terms: A western blot detects proteins with antibodies after separation by electrophoresis.
The nature of data set [11]: Toxicity in 4T1 cells implanted BALB/c mouse assessed as body weight loss at 1.5 to 5 mg/kg, ip administered daily for 18 days. Conditions: in vivo, 432 h, dose 1.5-5 mg/kg, time 18 day. The class given is organism-based.
Data set [12] deals with Mus musculus. Kind of data set: Immunomodulatory activity in mouse 4T1 cells implanted BALB/c mouse assessed as reduction in Ccl20 gene expression at 1.5 to 5 mg/kg, ip administered daily for 18 days by RT-qPCR analysis. Format: functional, organism-based. Conditions: dose 1.5-5 mg/kg, time 18.0 day.
The test system of data set [13] is 4TO7. Kind of data set: Inhibition of class 1 HDAC in mouse 4TO7 cells assessed as induction of H3K9 acetylation at 10 uM measured after 6 hrs by Western blot analysis. Format: cell-based.
The test system of data set [14] is Mus musculus. Kind of data set: Immunomodulatory activity in mouse 4T1 cells implanted BALB/c mouse assessed as reduction in Ccl2 gene expression at 1.5 to 5 mg/kg, ip administered daily for 18 days by RT-qPCR analysis. The class given is functional, organism-based. The following applies: dose 1.5-5 mg/kg, time 18.0 day.
The subject of data set [15] is B16-F10. Nature of the data set: Inhibition of class 1 HDAC in mouse B16-F10 cells assessed as induction of H3K27 acetylation at 10 uM measured after 6 hrs by Western blot analysis. Format: cell-based.

As for `CCC(CC)(c1ccc(C(=O)NCCCCC(=O)NO)cc1)c1ccc(OCC(O)C(C)(C)C)c(C)n1` (stereo not given), the outcome in data set [1], in [2], in data set [4], in [5], in data set [6] and in data set [8] was Active. Further, the result in data set [12] and in data set [14] was Active. In [3], the inhibition entry was “Active”. The inhibition result is “Active; Induced Higher Levels Of Acetylation Than Saha” in [7], “Active; Induced Higher Levels Of Acetylation Than Saha” in [10], “Active; Induced Higher Levels Of Acetylation Than Saha” in [13] and “Active; Acetylation Was Comparable Or Greater Than Saha” in [15]. Further, the Activity result in data set [9] and in data set [11] was “Non-toxic” each time.

The record behind these values is ChEMBL document CHEMBL6177932 (J Med Chem, 2024).
